The target in one assay is T1, APOL1 G2 (Homo sapiens, UniProt O14791, DEL388-389).
T1 construct: expressed in transfected cells; host or cells: HEK293 T-REx clonal line stably expressing GCaMP6f (HEK T-REx/GCaMP6f/APOL1 G2 K6.3), doxycycline induced
T1 sequence (O14791 with tags, fused parts or gaps DEL388-389): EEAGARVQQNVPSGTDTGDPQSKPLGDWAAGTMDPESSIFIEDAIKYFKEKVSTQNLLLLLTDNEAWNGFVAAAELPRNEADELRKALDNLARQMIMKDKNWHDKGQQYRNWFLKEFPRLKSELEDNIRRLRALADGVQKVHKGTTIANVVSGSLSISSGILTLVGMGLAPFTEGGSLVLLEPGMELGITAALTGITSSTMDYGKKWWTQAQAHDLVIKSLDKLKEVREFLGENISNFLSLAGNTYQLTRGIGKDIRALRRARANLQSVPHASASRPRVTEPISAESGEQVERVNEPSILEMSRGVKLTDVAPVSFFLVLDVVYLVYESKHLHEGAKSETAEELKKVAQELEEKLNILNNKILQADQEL
Description: APOL1-mediated calcium transport (calcium influx) assay, HEK T-REx/GCaMP6f/APOL1 G2 K6.3 cells, FLIPR TETRA. As to conditions: prevention of calcium influx; geometric mean of at least 2 assay runs; † = average of a technical replicate from a single assay run. In kind it is cell-based. In short, it runs like this:
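A HEK293 T-REx clone stably expressing GCaMP6f had APOL1 G2 induced with doxycycline (20 ng/mL solution added) for 6 h. Cells were then washed into Ca2+-free Tyrode's buffer (pH 7.4) and preincubated with compounds (duplicate 8-point) for 10 min at room temperature. Ca2+ injection to 5 mM final produced FLIPR GCaMP fluorescence, giving AC50 for influx inhibition (geometric mean, ≥2 runs).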

For assay [1], the system named is HEK293 cells overexpressing APOL1 G2. Kind of assay: APOL1 G2 HEK293 cell rescue assay (reversal of cell death caused by overexpression of APOL1). In kind it is cell-based. As to conditions: geometric mean of at least 2 assay runs, † = single assay run. In short, it runs like this: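 Each compound tested in duplicate wells on one plate per run, with values usually the geometric mean across at least two runs on different days, occasionally from one run only. Read-out: concentration giving half-maximal rescue of APOL1 G2 overexpression-induced death of HEK293 cells.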

Where [2] appears, read: Homo sapiens, HEK293, HEK293 overexpressing APOL1 G2.

The term AC50 denotes the concentration giving half of the maximal activity seen. The EC50 is the concentration at which the effect is half-maximal. As to `C[C@@H](COc1ccc(S(C)(=O)=O)cc1)N1CCC2(CC1)C(=O)Nc1ccc(Cl)cc12` (single isomer, unassigned) [Compound 10], the AC50 on APOL1 G2 was 1270 nM. For the same compound, the EC50 in assay [1] (setting [2]) amounted to 90.3 nM.
Turning to `C[C@@H](COc1ccc(S(C)(=O)=O)cc1)N1CCC2(CC1)C(=O)Nc1ccccc12` (single isomer, unassigned) [Compound 12], the AC50 on APOL1 G2 was under 457 nM. Further, the EC50 in assay [1] (setting [2]) was 307 nM.
For `C[C@@H](CN1CCC2(CC1)C(=O)Nc1ccccc12)Oc1ccc(S(C)(=O)=O)cc1` (single isomer, unassigned) [Compound 13], in that order: under 587 nM and 3010 nM.
Turning to `O=C1NCC2c3ccc(OCCN4CCC5(CC4)C(=O)Nc4ccc(Cl)cc45)cc3CCN12` (single isomer, unassigned) [Compound 116, (S) or (R)-5-chloro-1′-[2-({3-oxo-1H,2H,3H,5H,6H,10bH-imidazo[4,3-a]isoquinolin-8-yl}oxy)ethyl]-1,2-dihydrospiro[indole-3,4′-piperidin]-2-one], at APOL1 G2, the AC50 was determined as 466 nM. In assay [1] (setting [2]), the EC50 came out at 81.8 nM.
Consider `O=C1NCC2c3ccc(OCCN4CCC5(CC4)C(=O)Nc4ccc(Cl)cc45)cc3CCN12` (single isomer, unassigned) [Compound 117, (R) or (S)-5-chloro-1′-[2-({3-oxo-1H,2H,3H,5H,6H,10bH-imidazo[4,3-a]isoquinolin-8-yl}oxy)ethyl]-1,2-dihydrospiro[indole-3,4′-piperidin]-2-one], for which the AC50 on APOL1 G2 was determined as 396 nM. Further, the concentration giving a half-maximal response (EC50) in assay [1] (HEK293 overexpressing APOL1 G2) came to 81.5 nM.
`N#Cc1ccc2c(c1)C1(CCN(CCOc3ccc4c(c3)CCN3C(=O)NCC43)CC1)C(=O)N2` (single isomer, unassigned) [Compound 120, (R) or (S)-2-oxo-1′-[2-({3-oxo-1H,2H,3H,5H,6H,10bH-imidazo[4,3-a]isoquinolin-8-yl}oxy)ethyl]-1,2-dihydrospiro[indole-3,4′-piperidine]-5-carbonitrile]: at APOL1 G2, the AC50 worked out at 1190 nM. For the same compound, the 50% effective concentration (EC50) in assay [1] (HEK293 overexpressing APOL1 G2) came to 324 nM.
On to `O=C1CCC2c3ccc(OCCN4CCC5(CC4)C(=O)Nc4ccc(Cl)cc45)cc3CCN12` (single isomer, unassigned) [Compound 122, (S) or (R)-5-chloro-1′-[2-({3-oxo-1H,2H,3H,5H,6H,10bH-pyrrolo[2,1-a]isoquinolin-8-yl}oxy)ethyl]-1,2-dihydrospiro[indole-3,4′-piperidin]-2-one], for which, on APOL1 G2, the AC50 turned out to be 616 nM. The EC50 in assay [1] (setting [2]) is 87.5 nM.
As for `O=C1CCC2c3ccc(OCCN4CCC5(CC4)C(=O)Nc4ccc(Cl)cc45)cc3CCN12` (single isomer, unassigned) [Compound 123, (R) or (S)-5-chloro-1′-[2-({3-oxo-1H,2H,3H,5H,6H,10bH-pyrrolo[2,1-a]isoquinolin-8-yl}oxy)ethyl]-1,2-dihydrospiro[indole-3,4′-piperidin]-2-one], the concentration at half-maximal activity (AC50) on APOL1 G2 worked out at 796 nM. Besides, in assay [1] (HEK293 overexpressing APOL1 G2), the EC50 was determined as 79.5 nM.
Regarding `CC(c1ccc(OCCN2CCC3(CC2)C(=O)Nc2ccc(C#N)cc23)cc1)S(C)(=O)=O` (single isomer, unassigned) [Compound 134, (S) or (R)-1′-{2-[4-(1-methanesulfonylethyl)phenoxy]ethyl}-2-oxo-1,2-dihydrospiro[indole-3,4′-piperidine]-5-carbonitrile], the half-maximal activity concentration (AC50) at APOL1 G2 turned out to be 879 nM. Further, in assay [1] (setting [2]), the EC50 came out at 199 nM.
On to `CC(c1ccc(OCCN2CCC3(CC2)C(=O)Nc2ccc(C#N)cc23)cc1)S(C)(=O)=O` (single isomer, unassigned) [Compound 135, (R) or (S)-1′-{2-[4-(1-methanesulfonylethyl)phenoxy]ethyl}-2-oxo-1,2-dihydrospiro[indole-3,4′-piperidine]-5-carbonitrile], for which the AC50 at APOL1 G2 stood at 763 nM. The EC50 in assay [1] (HEK293 overexpressing APOL1 G2) amounted to 211 nM.
